Biological target: KRAS G12C and cRAF (Ras-binding domain) interaction (Homo sapiens (Human), UniProt P01116, C118S/C51S/C80L/G12C)
Test: Inhibition of KRAS G12C and cRAF binding (AlphaScreen)
Conditions: additional exemplary compounds; KRAS G12C and cRAF binding; read-out: RAF1 RBD IC50
Method: Compounds were diluted in 100% DMSO and each compound concentration was spotted at 200 nl/well onto low volume, white 384 well plates. […] Plates were incubated for 19-20 hours. A mixture of RBD and the AlphaScreen streptavidin donor and glutathione acceptor beads diluted in 25 mM Hepes, pH 7.4, 150 mM NaCl, 5 mM MgCl2, 0.01% TritonX-100 and 2% DMSO was then added at 10 ul/well and incubated for 60-90 minutes before the samples were read for emission at 570 nm after excitation of the donor beads at 680 nm. All incubations were performed at room temperature. […] IC50s were determined using nonlinear regression fit of [inhibitor]vs. response (4 parameters). […]

Sequence of KRAS G12C and cRAF (Ras-binding domain) interaction (P01116 other isoform, or with tags, fused parts or gaps G12C/C51S/C80L/C118S): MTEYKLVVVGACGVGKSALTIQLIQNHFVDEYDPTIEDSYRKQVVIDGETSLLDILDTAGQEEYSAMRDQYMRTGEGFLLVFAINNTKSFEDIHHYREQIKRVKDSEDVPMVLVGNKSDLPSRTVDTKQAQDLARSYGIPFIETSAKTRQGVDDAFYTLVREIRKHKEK

SMILES | IC50 [nM]
C=CC(=O)N1CC(N(C)c2nc(OCC34CCCN3CCC4)nc3c(F)c(-c4cccc5cccc(Cl)c45)ncc23)C1 | > 500
COC/C=C/S(=O)(=O)CCN(C)c1nc(OCC23CCCN2CCC3)nc2c1CCN(c1cccc3cccc(Cl)c13)C2 | 100 to 500
CN(C)C/C=C/S(=O)(=O)CCN(C)c1nc(OC[C@@H]2CCCN2C)nc2c(F)c(-c3cccc4cccc(Cl)c34)ncc12 | 10 to 100
CN(CCS(=O)(=O)/C=C/CN1CCC(F)(F)C1)c1nc(OC[C@@H]2CCCN2C)nc2c(F)c(-c3cccc4cccc(Cl)c34)ncc12 | > 500
CN1CCC[C@H]1COc1nc(N(C)[C@@H]2CCN(C(=O)/C=C/CN3CC(F)C3)C2)c2cnc(-c3cccc4cccc(Cl)c34)c(F)c2n1 | > 500
CCOC/C=C/S(=O)(=O)CCN(C)c1nc(OCC23CCCN2CCC3)nc2c1CCN(c1cccc3cccc(Cl)c13)C2 | > 500
C=CC(=O)CN(C)c1nc(OC[C@@H]2CCCN2C)nc2c1CCN(c1cccc3ccccc13)C2 | 100 to 500
C=CC(=O)N1CC[C@@H](N(C)c2nc(OC[C@]34CCCN3C[C@@H](F)C4)nc3c(F)c(-c4cccc5cccc(Cl)c45)ncc23)C1 | 100 to 500
C=CC(=O)N1CC[C@@H](N(C)c2nc(OC[C@]34CCCN3C[C@@H](F)C4)nc3c2CCN(c2cccc4cccc(Cl)c24)C3)C1 | > 500
Cc1noc(/C=C/C(=O)N2CCN(c3nc(OC[C@@]45CCCN4C[C@H](F)C5)nc4c3CCN(c3cccc5cccc(Cl)c35)C4)CC2)n1 | > 500
CC(C)c1noc(/C=C/C(=O)N2CCN(c3nc(OCC45CCCN4CCC5)nc4c3CCN(c3cccc5cccc(Cl)c35)C4)CC2)n1 | > 500
CC(C)c1noc(/C=C/C(=O)N2CCN(c3nc(OC[C@@]45CCCN4C[C@H](F)C5)nc4c3CCN(c3cccc5cccc(Cl)c35)C4)CC2)n1 | > 500
C=CC(=O)N1CC[C@@H](N(CC)c2nc(OC[C@@]34CCCN3C[C@H](F)C4)nc3c(F)c(-c4cccc5cccc(Cl)c45)ncc23)C1 | > 500
C=CC(=O)N1CCC(N(c2nc(OCC34CCCN3CCC4)nc3c2CCN(c2cccc4cccc(Cl)c24)C3)C2CC2)C1 (stereo not drawn) | > 500
C=CC(=O)N1CCC(N(c2nc(OC[C@@]34CCCN3C[C@H](F)C4)nc3c2CCN(c2cccc4cccc(Cl)c24)C3)C2CC2)C1 (stereo partly drawn) | > 500
C=CC(=O)N1CCC1CN(C)c1nc(OC[C@@]23CCCN2C[C@H](F)C3)nc2c(F)c(-c3cccc4cccc(Cl)c34)ncc12 (stereo partly drawn) | > 500
C=CC(=O)N1CC(CN(C)c2nc(OC[C@]34CCCN3C[C@H](F)C4)nc3c(F)c(-c4cccc5cccc(Cl)c45)ncc23)C1 | > 500
C=CC(=O)N1CC[C@@H](N(C)c2nc(OC[C@]34CCCN3C[C@H](F)C4)nc3c(F)c(-c4cccc5cccc(Cl)c45)ncc23)C1 | 100 to 500
CN(C)C/C=C/S(=O)(=O)C1CCCN(c2nc(OCC34CCCN3CCC4)nc3c(F)c(-c4cccc5cccc(Cl)c45)ncc23)C1 (stereo not drawn) | 10 to 100
C=CC(=O)N1C[C@@H](N(C)c2nc(OCC34CCCN3CCC4)nc3c2CCN(c2cccc4cccc(Cl)c24)C3)C[C@@H]1CC#N | > 500
C=CC(=O)N1C[C@@H](N(C)c2nc(OC[C@@]34CCCN3C[C@H](F)C4)nc3c2CCN(c2cccc4cccc(Cl)c24)C3)C[C@@H]1CC#N | > 500

SMILES | IC50 [nM]
C=CC(=O)N1CCC(N(c2nc(OC[C@@]34CCCN3C[C@H](F)C4)nc3c(F)c(-c4cccc5cccc(Cl)c45)ncc23)C2CC2)C1 (stereo partly drawn) | > 500
C=CC(=O)N1CCC1CN(C)c1nc(OC[C@@]23CCCN2C[C@H](F)C3)nc2c1CCN(c1cccc3cccc(Cl)c13)C2 (stereo partly drawn) | > 500
C=CC(=O)N1CC[C@@H]1CN(C)c1nc(OC[C@@]23CCCN2C[C@H](F)C3)nc2c(F)c(-c3cccc4cccc(Cl)c34)ncc12 | > 500
C=CC(=O)N1CC[C@H]1CN(C)c1nc(OC[C@@]23CCCN2C[C@H](F)C3)nc2c(F)c(-c3cccc4cccc(Cl)c34)ncc12 | > 500
C=CC(=O)N(C)C[C@H]1CCN1c1nc(OC[C@@]23CCCN2C[C@H](F)C3)nc2c(F)c(-c3cccc4cccc(Cl)c34)ncc12 | > 500
C=CC(=O)N(C)C[C@@H]1CCN1c1nc(OC[C@@]23CCCN2C[C@H](F)C3)nc2c(F)c(-c3cccc4cccc(Cl)c34)ncc12 | > 500
C=CC(=O)N1CC(CN(C)c2nc(OC[C@]34CCCN3C[C@H](F)C4)nc3c2CCN(c2cccc4cccc(Cl)c24)C3)C1 | 100 to 500
CN(C)C/C=C/S(=O)(=O)CCN(C)c1nc(OC[C@@H]2CCCN2C)nc2c(F)c(-c3cccc4ccc(F)c(Cl)c34)ncc12 | 10 to 100
C=CC(=O)N1C[C@H](N(C)c2nc(OC[C@@]34CCCN3C[C@H](F)C4)nc3c(F)c(-c4cccc5cccc(Cl)c45)ncc23)C[C@H]1CC#N | 10 to 100
Cc1cc(/C=C/C(=O)N2CC[C@@H](N(C)c3nc(OCC45CCCN4CCC5)nc4c(F)c(-c5cccc6cccc(Cl)c56)ncc34)C2)on1 | > 500
CN(c1nc(OCC23CCCN2CCC3)nc2c(F)c(-c3cccc4cccc(Cl)c34)ncc12)[C@@H]1CCN(C(=O)/C=C/c2ncn(C)n2)C1 | > 500
CN(c1nc(OCC23CCCN2CCC3)nc2c(F)c(-c3cccc4cccc(Cl)c34)ncc12)[C@@H]1CCN(C(=O)/C=C/c2cn(C)nn2)C1 | > 500
C=CC(=O)N1CC(CN(C)c2nc(OC[C@@]34CCCN3C[C@@H](F)C4)nc3c(F)c(-c4cccc5cccc(Cl)c45)ncc23)C1 | > 500
C=CC(=O)N1CC[C@@H](N(C)c2nc(OC[C@@]34CCCN3C[C@@H](F)C4)nc3c(F)c(-c4cccc5cccc(Cl)c45)ncc23)C1 | > 500
C=CC(=O)N1CC[C@@H](N(C)c2nc(OC[C@@]34CCCN3C[C@@H](F)C4)nc3c2CCN(c2cccc4cccc(Cl)c24)C3)C1 | > 500
N#CN1C2CCC1CN(c1nc(OC[C@@]34CCCN3C[C@H](F)C4)nc3c1CCN(c1cccc4cccc(Cl)c14)C3)C2 | > 500
N#CN1C2CCC1CN(c1nc(OC[C@@]34CCCN3C[C@H](F)C4)nc3c1CCN(c1cccc4ccc(F)c(Cl)c14)C3)C2 | > 500
C=CC(=O)N(C)CC1CCN1c1nc(OC[C@@]23CCCN2C[C@H](F)C3)nc2c(F)c(-c3cccc4cccc(Cl)c34)ncc12 (stereo partly drawn) | > 500
N#CN1CCC(N(c2nc(OC[C@@]34CCCN3C[C@H](F)C4)nc3c(F)c(-c4cccc5cccc(Cl)c45)ncc23)C2CC2)C1 (stereo partly drawn) | 10 to 100
C=CC(=O)N1CC[C@@H](N(C)c2nc(OC[C@]34CCCN3C[C@H](F)C4)nc3c2CCN(c2cccc4cccc(Cl)c24)C3)C1 | > 500
C=CC(=O)N1C[C@H](N(C)c2nc(OC[C@@]34CCCN3C[C@H](F)C4)nc3c(F)c(-c4cccc5cccc(Cl)c45)ncc23)CC1C#N (stereo partly drawn) | 10 to 100

SMILES | IC50 [nM]
C=CC(=O)N1CC(CN(C)c2nc(OC[C@@]34CCCN3C[C@@H](F)C4)nc3c2CCN(c2cccc4cccc(Cl)c24)C3)C1 | > 500
C=CC(=O)N1C2CCC1CN(c1nc(OCC34CCCN3CCC4)nc3c1CCN(c1cccc4cccc(Cl)c14)C3)C2 | > 500
C=CC(=O)N1C[C@H]2C[C@@H]1CN2c1nc(OCC23CCCN2CCC3)nc2c1CCN(c1cccc3cccc(Cl)c13)C2 | > 500
C=CC(=O)N1C[C@@H]2C[C@H]1CN2c1nc(OCC23CCCN2CCC3)nc2c1CCN(c1cccc3cccc(Cl)c13)C2 | > 500
C=CC(=O)N1C[C@H](N(C)c2nc(OCC34CCCN3CCC4)nc3c2CCN(c2cccc4cccc(Cl)c24)C3)C[C@H]1CC#N | > 500
C=CC(=O)N1CC[C@@H]1CN(C)c1nc(OC[C@@]23CCCN2C[C@H](F)C3)nc2c1CCN(c1cccc3cccc(Cl)c13)C2 | > 500
CN(c1nc(OCC23CCCN2CCC3)nc2c(F)c(-c3cccc4cccc(Cl)c34)ncc12)[C@@H]1CCN(C(=O)/C=C/c2ncccn2)C1 | > 500
C=CC(=O)N1CC[C@@H](Nc2nc(OC[C@@]34CCCN3C[C@H](F)C4)nc3c(F)c(-c4cccc5cccc(Cl)c45)ncc23)C1 | > 500
C=CC(=O)N1CC[C@H](Nc2nc(OC[C@@]34CCCN3C[C@H](F)C4)nc3c(F)c(-c4cccc5cccc(Cl)c45)ncc23)C1 | > 500
C=CC(=O)N1CC(CNc2nc(OC[C@@]34CCCN3C[C@H](F)C4)nc3c(F)c(-c4cccc5cccc(Cl)c45)ncc23)C1 | 100 to 500
C=CC(=O)N1CC[C@H](Nc2nc(OC[C@@]34CCCN3C[C@H](F)C4)nc3c2CCN(c2cccc4cccc(Cl)c24)C3)C1 | > 500
CN(c1nc(OC[C@@]23CCCN2C[C@H](F)C3)nc2c(F)c(-c3cccc4cccc(Cl)c34)ncc12)[C@@H]1CCN(C(=O)/C=C/c2ncn(C)n2)C1 | > 500
CN(c1nc(OCC23CCCN2CCC3)nc2c(F)c(-c3cccc4cccc(Cl)c34)ncc12)[C@@H]1CCN(C(=O)/C=C/c2ccncn2)C1 | > 500
CN(c1nc(OCC23CCCN2CCC3)nc2c(F)c(-c3cccc4cccc(Cl)c34)ncc12)[C@@H]1CCN(C(=O)/C=C/c2cnccn2)C1 | > 500
C=CC(=O)N1CC[C@@H](Nc2nc(OC[C@@]34CCCN3C[C@H](F)C4)nc3c2CCN(c2cccc4cccc(Cl)c24)C3)C1 | > 500
C=CC(=O)N1CC(CNc2nc(OC[C@@]34CCCN3C[C@H](F)C4)nc3c2CCN(c2cccc4cccc(Cl)c24)C3)C1 | > 500
C=CS(=O)(=O)CCN(C)c1nc(OC[C@@H]2CCCN2C)nc2c1CCN(c1cccc3ccc(F)c(Cl)c13)C2 | 100 to 500
CN(c1nc(OC[C@@]23CCCN2C[C@H](F)C3)nc2c1CCN(c1cccc3cccc(Cl)c13)C2)[C@@H]1CCN(C(=O)/C=C/c2ncn(C)n2)C1 | > 500
C=CC(=O)N1CC(CN(C)c2nc(OC[C@@]34CCCN3C[C@H](O)C4)nc3c(F)c(-c4cccc5cccc(Cl)c45)ncc23)C1 | > 500
CN(c1nc(OC[C@@]23CCCN2C[C@H](F)C3)nc2c(F)c(-c3cccc4ccc(F)c(Cl)c34)ncc12)[C@@H]1CCN(C(=O)/C=C/C2CNC2)C1 | 100 to 500
C=CC(=O)N1C[C@H](N(C)c2nc(OC[C@@]34CCCN3C[C@H](F)C4)nc3c2CCN(c2cccc4cccc(Cl)c24)C3)C[C@H]1CC#N | 100 to 500

From patent US20250019387A1 (Frontier Medicines Corporation, priority 0001, published 2025)
